From EP0600950B1, “AMIDE TETRAZOLE ACAT INHIBITORS” (priority 1991, dated 1993) come the findings set out here.

For orientation: IC50 means the concentration at which inhibition is half-maximal. Higher therefore signals a need for much substance.

Experiment [1] deals with acyl-CoA: cholesterol acyltransferase (ACAT). As to the kind of experiment: in vitro ACAT inhibition, rat liver microsomes (LAI). Format: biochemical. As to conditions: radiolabeled cholesterol oleate formed from radiolabeled oleic acid. An excerpt:
(§1) The test assesses the ability of a test compound to inhibit the acylation of cholesterol by oleic acid by measuring the amount of radiolabeled cholesterol oleate formed from radiolabeled oleic acid in a tissue preparation containing rabbit intestinal microsomes (designated IAI) or from rat liver microsomes (designated LAI).

For experiment [2] the target is unchanged. As to the kind of experiment: in vitro ACAT inhibition, rabbit intestinal microsomes (IAI). As to conditions: radiolabeled cholesterol oleate formed from radiolabeled oleic acid. Format: biochemical.
From the text: as §1

The subject of a further experiment is male Sprague-Dawley rats. The experiment is described as follows: in vivo screen APCC, cholesterol-fed rats, blood cholesterol. As to conditions: Table 2, dosed at 30 mg/kg unless otherwise noted, high fat, high cholesterol diet with 0.5% cholic acid overnight, blood cholesterol vs vehicle. An excerpt: In one in vivo screen designated APCC, male Sprague-Dawley rats (200 to 225 g) were randomly divided into treatment groups and dosed at 4 PM with either vehicle (CMC/Tween) or suspensions of compounds in vehicle. The normal chow diet was then replaced with a high fat, high cholesterol diet with 0.5% cholic acid. The rats consumed this diet ad libitum during the night and were sacrificed at 8 AM to obtain blood samples for cholesterol analysis using standard procedures. Statistical differences between mean cholesterol values for the same vehicle were determined using analysis of variance followed by Fisher's least significant test.

Consider `CCCCCCCCCCCCc1nnn(C(C(=O)Nc2c(C(C)C)cccc2C(C)C)c2ccccc2)n1` (racemic) [Example 92, (±)-N-[2,6-bis(1-methylethyl)phenyl]-5-dodecyl-α-phenyl-2H-tetrazole-2-acetamide], for which the midpoint of inhibition in experiment [1], the IC50, lay at 15 nM.
For the compound `CCCCCCCCCCc1nnn(CC(=O)Nc2c(C(C)C)cccc2C(C)C)n1` [Example 88, N-[2,6-bis(1-methylethyl)phenyl]-5-decyl-2H-tetrazole-2-acetamide], the IC50 in experiment [1] amounted to 10 nM.
Same read-out and setting: the result for `CCCCCCCCCCc1nnn(C(C(=O)Nc2c(OC)cc(OC)cc2OC)c2ccccc2)n1` (racemic) [Example 95, (±)-5-decyl-α-phenyl-N-(2,4,6-trimethoxyphenyl-2H-tetrazole-2-acetamide] reads 58 nM; that for `CCCCCCCCCCCCc1nnn(C(C)(C)C(=O)Nc2c(OC)cc(OC)cc2OC)n1` [Example 102, 5-dodecyl-α,α-dimethyl-N-(2,4,6-trimethoxyphenyl)-2H-tetrazole-2-acetamide], 42 nM; that for `CCCCCCCCCCCCc1nnn(C(C(=O)Nc2ccc(F)cc2F)c2ccccc2)n1` (racemic) [Example 100, (±)-N-(2,4-difluorophenyl-5-dodecyl-α-phenyl-2H-tetrazole-2-acetamide], 80 nM.
In turn, `CCCCCCCCCCCCSc1nnn(C(C(=O)Nc2c(C(C)C)cccc2C(C)C)c2ccccc2)n1` (racemic) [Example 94, (±)-N-[2,6-bis(1-methylethyl)phenyl-5-(dodecylthio)-α-phenyl-2H-tetrazole-2-acetamide] displayed an IC50 in experiment [1] of 29 nM.
`CCCCCCCCCCCCc1nnn(CC(=O)Nc2c(C(C)C)cccc2C(C)C)n1` [Example 91] registered an IC50 in experiment [1] of 6 nM.
Same read-out and setting: next, `CCCCCCCCCCCCc1nnn(C(CCCCC)C(=O)Nc2c(OC)cc(OC)cc2OC)n1` (racemic) [Example 99, (±)-5-dodecyl-α-pentyl-N-(2,4,6-trimethoxyphenyl)-2H-tetrazole-2-acetamide]: 32 nM; `COc1cc(OC)c(NC(=O)C(c2ccccc2)n2nnc(C(c3ccccc3)c3ccccc3)n2)c(OC)c1` (racemic) [Example 96, (±)-5-(diphenylmethyl)-α-phenyl-N-(2,4,6-trimethoxyphenyl)-2H-tetrazole-2-acetamide]: 190 nM.
Still for that read-out and setting: next, `CCCCCCCCCCc1nnnn1CC(=O)Nc1c(C(C)C)cccc1C(C)C` [Example 89, N-[2,6-bis(1-methylethyl)phenyl]-5-decyl-1H-tetrazole-1-acetamide]: 390 nM; `CCCCCCCCCCCCSc1nnn(C(C(=O)Nc2c(OC)cc(OC)cc2OC)c2ccccc2)n1` (racemic) [Example 103, (±)-5-(dodecylthio)-α-phenyl-N-(2,4,6-trimethoxyphenyl)-2H-tetrazole-2-acetamide]: 49 nM; `CCCCCCCCCCCC[S+]([O-])c1nnn(C(C(=O)Nc2c(OC)cc(OC)cc2OC)c2ccccc2)n1` (racemic) [Example 104, (±)-5-(dodecylsulfinyl)-α-phenyl-N-(2,4,6)-trimethoxyphenyl)-2H-tetrazole-2-acetamide]: 55 nM.
Take `CCCCCCCCCCCCn1nnc(C(C(=O)Nc2c(C)nn(C)c2C)c2ccccc2)n1` (racemic) [Example 19, (±)-2-dodecyl-α-phenyl-N-(1,3,5-trimethyl-1H-pyrazol-4-yl)-2H-tetrazole-5-acetamide]: in experiment [2], inhibition was half-maximal at 14 nM (IC50).
Take “(±)-2-Dodecyl-β-phenyl-N-(2,4-6-trimethoxyphenyl)-2H-tetrazole-5-propanamide and (±)-1-dodecyl-β-phenyl-N-(2,4,6-trimethoxyphenyl)-^1H-tetrazole-5-acetamide [Example 45]”: in experiment [2], half-maximal inhibition (IC50) was put at 230 nM. Moreover, the “APCC (% ΔTC)” value in the experiment on male Sprague-Dawley rats is recorded as -60%.
`CCCCCCCCCCCCc1nnn(C(CCCCC)C(=O)Nc2c(C(C)C)cccc2C(C)C)n1` (racemic) [Example 93, (±)-N-[2,6-bis(1-methylethyl)phenyl]-5-dodecyl-α-pentyl-2H-tetrazole-2-acetamide] returned an IC50 in experiment [1] of 22 nM.
As to `CCCCCCCCCCCCn1nnc(CC(=O)Nc2c(OC)cc(OC)cc2OC)n1` [Example 5, 2-dodecyl-N-(2,4,6-trimethoxyphenyl)-2H-tetrazole-5-acetamide], 10 nM corresponded to half-maximal inhibition in experiment [2] (IC50).
`CCCCCCCCCCCCn1nnc(C(C(=O)Nc2c(OC)cc(OC)cc2OC)c2ccc(N(C)C)cc2)n1` (racemic) [Example 51, (±)-α-[4-dimethylamino)phenyl]-2-dodecyl-N-(2,4,6-trimethoxy-phenyl)-2H-tetrazole-5-acetamide] gave a half-inhibitory concentration (IC50) in experiment [2] of 660 nM.
Regarding `C=CCC(CC=C)(C(=O)Nc1c(OC)cc(OC)cc1OC)c1nnn(CCCCCCCCCCCC)n1` [Example 28, 2-Dodecyl-α,α'-(2-propenyl)-N-(2,4,6-trimethoxyphenyl)-2H-tetrazole-5-acetamide], in experiment [2], half-maximal inhibition (IC50) required 18 nM.
As to `CC(C)c1cccc(C(C)C)c1NC(=O)C(c1ccccc1)n1nnc(C(c2ccccc2)c2ccccc2)n1` (racemic) [Example 90, (±)-N-[2,6-bis(1-methylethyl)phenyl]-5-(diphenylmethyl)-α-phenyl-2H-tetrazole-2-acetamide], in experiment [1], the IC50 was found to be 100 nM.
The compound `CCCCCCCCCCCCn1nnc(CC(=O)Nc2c(C)nn(C)c2C)n1` [Example 11, 2-dodecyl-N-(1,3,5-trimethyl-1H-pyrazol-4-yl)-2H-tetrazole-5-acetamide] had an IC50 in experiment [2] of 17 nM.
With `CCCCCCCCCCCCc1nnn(CC(=O)Nc2c(OC)cc(OC)cc2OC)n1` [Example 97, 5-dodecyl-N-(2,4,6-trimethoxy-phenyl)-2H-tetrazole-2-acetamide], half-maximal inhibition in experiment [1] (IC50) was put at 56 nM.
On the same count and under the same terms, next, `CCCCCCCCCCCCc1nnn(CC(=O)Nc2ccc(F)cc2F)n1` [Example 101, N-(2,4-difluorophenyl)-5-dodecyl-2H tetrazole-2-acetamide]: above 5000 nM; `CCCCCCCCCCCCc1nnn(C(C(=O)Nc2c(OC)cc(OC)cc2OC)c2ccccc2)n1` (racemic) [Example 98, (±)-5-dodecyl-α-phenyl-N-(2,4,6-trimethoxyphenyl)-2H-tetrazole-2-acetamide]: 21 nM.
For the compound `CCCCCCCCCCCCn1nnc(CC(=O)Nc2c(C(C)C)cccc2C(C)C)n1` [Example 1, N-[2,6-Bis(1-methylethyl)phenyl]-2-dodecyl-2H-tetrazole-5-acetamide], in experiment [2], it took 3 nM to reach half-maximal inhibition (IC50).
The same measure, in the same setting: the result for `CCCCCCCCCCCCn1nnnc1C(C(=O)Nc1ccc(F)cc1F)c1ccccc1` (racemic) [Example 25, (±)-N-(2,4-Difluorophenyl)-1-dodecyl-α-phenyl-1H-tetrazole-5-acetamide] reads 800 nM.
On the same count and under the same terms, next, `CCCCCCCCCCCCn1nnc(C(C)(C(=O)Nc2c(OC)cc(OC)cc2OC)c2ccccc2)n1` (racemic) [Example 44, (±)-2-Dodecyl-α-methyl-α-phenyl-N-(2,4,6-trimethoxyphenyl)-2H-tetrazole-5-acetamide]: 29 nM; `CCCCCCCCCCCCn1nnc(C(C(=O)Nc2c(OC)cc(OC)cc2OC)c2ccccc2)n1` (racemic) [Example 13, (±) 2-Dodecyl-α-phenyl-N-(2,4,6-trimethoxyphenyl)-2H-tetrazole-5-acetamide]: 9 nM.
